The record followed here is patent US20120129730A1, “GENERATION OF COMPOUND LIBRARIES UTILIZING MOLECULAR IMPRINTS INCLUDING A DOUBLE OR ANTI-IDIOTYPIC APPROACH” (KLAUS MOSBACH, priority 2001, published 2012).

The assay has as its target T1, tissue kallikrein (UniProt P00752).
T1 sequence (P00752 1-246): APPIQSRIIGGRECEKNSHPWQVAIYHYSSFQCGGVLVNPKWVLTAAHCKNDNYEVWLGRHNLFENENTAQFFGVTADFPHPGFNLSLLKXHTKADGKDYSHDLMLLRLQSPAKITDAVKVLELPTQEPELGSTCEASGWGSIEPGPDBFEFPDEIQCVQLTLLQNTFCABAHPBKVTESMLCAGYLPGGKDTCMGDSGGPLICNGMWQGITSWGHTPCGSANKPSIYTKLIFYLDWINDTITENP
The assay is described as follows: Determination of inhibition constants (Ki) for tissue kallikrein. Format: biochemical. To be noted: for Ki: literature method of Burton and Lowe, read-out: Ki, inhibition constant for tissue kallikrein. How it is done:
Determination of Inhibition Constants (Ki) for Tissue Kallikrein
Inhibition constants of compounds 1, 2 and 3 for tissue kallikrein are determined according to the literature method described by Burton and Lowe. ^7 The results are listed in Table 4.

Usually Ki stands for the dissociation constant of the complex between target and ligand, obtained from inhibition or displacement. In the case of `N=C(N)c1ccc(Nc2nc(Cl)nc(Cl)n2)cc1` [2-(4-amidinophenylamino)-4,6-dichloro-s-triazine, reference compound], the Ki was greater than 100 µM.
Consider `N=C(N)c1ccc(Nc2nc(Cl)nc(NCc3ccccc3)n2)cc1` [Compound 3], for which the Ki stood at 5.2 µM. The “inhibition efficacy compared with the original template (1)” value (tissue kallikrein inhibition, comparison in words) is listed as “approximately the same inhibition efficacy as that of the original template (1)”.
